Key:
[1] = tested on: HCC827 (EGFR DelE746_A750); experiment: Inhibition test for growth of cancer cell expressing EGFR (SRB), HCC827; format: cell-based; conditions: Homo sapiens, HCC827, 72 h, HCC827 cells, 72 hours, SRB; read-out: GI50 HCC827 EGFR DelE746_A750;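 note: cells in 96-well plates exposed to tenfold serial dilutions from 100 µM, fixed with trichloroacetic acid, SRB-stained, absorbance read at 540 nm, DMSO under 1%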
Method: A431 cell line was incubated in a high-glucose DMEM (Dulbecco's Modified Eagle's Medium) supplemented with 10% fetal bovine serum (FBS) and 1% penicillin/streptomycin (Gibco BRL), and HCC827 and NCI-H1975 cell lines were incubated in an RPMI medium supplemented with 10% FBS, 1% penicillin/streptomycin and 1% sodium pyruvate.
The cancer cell lines stored in a liquid nitrogen tank were each quickly thawed at 37° C., and centrifuged to remove the medium. The resulting cell pellet was mixed with a culture medium, incubated in a culture flask at 37° C. under 5% CO2 for 2 to 3 days, and the medium was removed. The remaining cells were washed with DPBS (Dulbecco's Phosphate Buffered Saline) and separated from the flask by using Tripsin-EDTA. […] 100 μl of the diluted cell solution was added to each well of a 96-well plate, and incubated at 37° C. under 5% CO2 for 1 day.
In case that the test compound was not soluble in DMSO, 1% HCl was added thereto and treated in a 40° C. water bath for 30 mins until a complete dissolution was attained. The DMSO solution containing test compound was diluted with a culture medium to a final concentration of 100 μM, and then diluted 10 times serially to 10^−6 μM (a final concentration of DMSO was less than 1%).
The medium was removed from each well of the 96-well plate. And then, 100 μl of a test compound solution was added to each well holding the cultured cells, and the plate was incubated at 37° C. under 5% CO2 for 72 hours (except that NCI-H1975 cells were incubated for 48 hours). After removing the medium from the plate, 50 μA of 10% trichloroacetic acid was added to each well, and the plate was kept at 4° C. for 1 hour to fix the cells to the bottom of the plate. The added 10% trichloroacetic acid solution was removed from each well, the plate was dried, 100 μA of an SRB (Sulforhodamine-B) dye solution at a concentration of 0.4% dissolved in 1% acetic acid was added thereto, and the resulting mixture was reacted for 10 mins at room temperature. After removing the dye solution, the plate was washed with water, and well dried. When the dye solution was not effectively removed by water, 1% acetic acid was used. 150 μA of 10 mM trisma base was added to each well, and the absorbance at 540 nm wavelength was determined with a microplate reader.

A431 (EGFR WT) = experiment: Inhibition test for growth of cancer cell expressing EGFR (SRB), A431; format: cell-based; conditions: Homo sapiens, A-431; A431 cells, 72 hours, SRB; read-out: GI50 A431 EGFR WT;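 note: cells in 96-well plates exposed to tenfold serial dilutions from 100 µM down to 10^−6 µM, DMSO under 1%, SRB staining read as absorbance at 540 nm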
BTK = target: T1, BTK (Homo sapiens, UniProt Q06187); experiment: z-lyte kinase assay, BTK; format: biochemical
T1 construct: purchased Invitrogen
T1 sequence (Q06187 whole entry): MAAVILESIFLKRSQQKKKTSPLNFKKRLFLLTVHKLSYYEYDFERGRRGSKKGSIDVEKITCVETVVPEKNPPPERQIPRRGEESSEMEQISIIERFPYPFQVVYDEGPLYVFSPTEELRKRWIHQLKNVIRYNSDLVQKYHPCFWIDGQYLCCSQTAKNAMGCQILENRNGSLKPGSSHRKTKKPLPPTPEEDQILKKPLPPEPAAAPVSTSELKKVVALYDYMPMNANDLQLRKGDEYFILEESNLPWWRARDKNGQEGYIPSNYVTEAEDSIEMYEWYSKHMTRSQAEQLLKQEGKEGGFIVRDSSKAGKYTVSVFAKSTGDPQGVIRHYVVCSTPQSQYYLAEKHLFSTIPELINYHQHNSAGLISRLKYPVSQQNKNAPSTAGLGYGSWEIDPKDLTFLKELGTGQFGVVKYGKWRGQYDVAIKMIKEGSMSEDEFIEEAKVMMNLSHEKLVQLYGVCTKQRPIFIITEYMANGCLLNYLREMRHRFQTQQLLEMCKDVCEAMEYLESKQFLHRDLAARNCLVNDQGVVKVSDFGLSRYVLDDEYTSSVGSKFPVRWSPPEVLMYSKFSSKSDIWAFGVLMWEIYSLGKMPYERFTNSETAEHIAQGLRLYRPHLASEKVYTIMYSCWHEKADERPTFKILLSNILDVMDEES
Outline: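 Each kinase was mixed with peptide substrate, compound (dilution series made at 1–0.0001 μM in 4% DMSO) and ATP added from a 5~300 μM solution, then incubated 60 min at RT. After development reagent and stop solution, fluorescence was read at 400 nm excitation/520 nm emission and IC50 calculated.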

BMX = target: T2, BMX (Homo sapiens, UniProt P51813); experiment: z-lyte kinase assay, BMX; format: biochemical
T2 construct: purchased Invitrogen
T2 sequence (P51813 1-675): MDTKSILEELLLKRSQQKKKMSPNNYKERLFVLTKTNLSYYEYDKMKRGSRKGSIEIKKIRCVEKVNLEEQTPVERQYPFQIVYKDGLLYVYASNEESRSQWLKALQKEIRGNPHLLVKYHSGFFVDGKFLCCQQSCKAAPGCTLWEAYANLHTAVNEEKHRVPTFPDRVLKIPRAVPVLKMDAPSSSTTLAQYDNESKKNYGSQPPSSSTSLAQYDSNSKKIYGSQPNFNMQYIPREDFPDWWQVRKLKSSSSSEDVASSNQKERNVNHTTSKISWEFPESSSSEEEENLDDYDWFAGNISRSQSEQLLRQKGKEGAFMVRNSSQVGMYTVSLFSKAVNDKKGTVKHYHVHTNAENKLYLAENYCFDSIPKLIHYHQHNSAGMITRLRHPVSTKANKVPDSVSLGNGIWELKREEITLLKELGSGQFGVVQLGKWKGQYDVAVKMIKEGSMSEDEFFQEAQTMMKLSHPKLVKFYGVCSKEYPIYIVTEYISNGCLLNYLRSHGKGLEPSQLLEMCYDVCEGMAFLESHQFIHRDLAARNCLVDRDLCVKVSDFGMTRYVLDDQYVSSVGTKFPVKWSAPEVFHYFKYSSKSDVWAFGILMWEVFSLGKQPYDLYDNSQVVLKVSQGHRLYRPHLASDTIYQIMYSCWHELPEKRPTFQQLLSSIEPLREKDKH

ITK = target: T3, ITK (Homo sapiens, UniProt Q08881); experiment: z-lyte kinase assay, ITK; format: biochemical
T3 construct: purchased Invitrogen
T3 sequence (Q08881 1-620): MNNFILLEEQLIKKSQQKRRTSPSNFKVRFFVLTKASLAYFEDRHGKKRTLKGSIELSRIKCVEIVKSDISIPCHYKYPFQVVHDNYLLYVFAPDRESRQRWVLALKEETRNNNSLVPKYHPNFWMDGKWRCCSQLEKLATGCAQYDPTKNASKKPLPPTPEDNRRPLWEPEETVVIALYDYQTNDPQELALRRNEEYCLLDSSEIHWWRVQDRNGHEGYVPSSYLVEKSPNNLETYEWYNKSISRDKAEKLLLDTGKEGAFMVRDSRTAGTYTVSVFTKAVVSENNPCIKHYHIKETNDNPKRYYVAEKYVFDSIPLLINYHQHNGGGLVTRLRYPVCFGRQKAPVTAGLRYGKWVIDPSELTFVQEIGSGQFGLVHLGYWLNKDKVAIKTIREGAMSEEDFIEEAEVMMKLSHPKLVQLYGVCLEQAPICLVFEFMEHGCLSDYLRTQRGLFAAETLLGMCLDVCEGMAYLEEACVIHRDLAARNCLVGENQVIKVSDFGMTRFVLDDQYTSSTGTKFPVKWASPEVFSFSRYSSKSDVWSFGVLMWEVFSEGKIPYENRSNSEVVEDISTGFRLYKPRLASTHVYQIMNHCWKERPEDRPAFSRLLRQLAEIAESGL

GI50 [1]: < 50 nM
GI50 (A431 (EGFR WT)): > 1000 nM
IC50 (BTK): ≤ 50 nM
IC50 (BMX): ≤ 50 nM
IC50 (ITK): 50 to 100 nM
Compound: C=CC(=O)Nc1cccc(Oc2nc(Nc3ccc(N4CCN(C)CC4)cc3)nc3ccsc23)c1 [Example 1, N-(3-(2-(4-(4-methylpiperazin-1-yl)phenylamino)thieno[3,2-d]pyrimidine-4-yloxy)phenyl)acrylamide]

Reference: patent USRE46511E1, “Fused pyrimidine derivatives for inhibition of tyrosine kinase activity” (HANMI SCIENCE CO., LTD., priority 2010, dated 2017)
